From patent US5262403A, “Glycosaminoglycan derivatives and their use as inhibitors of tumor invasiveness of metastatic profusion-II” (priority 1990, dated 1993)
Entries after “also recorded” stand apart in the source; their conditions may differ. One block for each substance: values may come before it.

Experiments:
B16 melanoma heparanase [1] = assay: HPLC assay for heparanase inhibition (14C-HS degradation, gel-permeation chromatography); assay type: biochemical, mouse; settings: 1 mg/ml in incubation mixture, crude heparanase of 10^6 B16-BL6 cells, 37° C., 6 h
Method: A high-speed gel-permeation chromatography system was equipped with a 0.70×75 cm column of Fractogel TSK-HW55(S). Elution was performed with 0.2M NaCl at a flow rate of 1.0 ml/min at 55° C. Each 0.5-ml fraction corresponding to 30-sec elution was collected, mixed with 3 ml of Hydrofluor and its radioactivity determined. Panel A, ^14 C-HS was incubated with heat-inactivated crude heparanase (10^6 B16-BL6-melanoma cell equivalents) at 37° C. for 6 h, and analyzed. B, same incubation as A except that the enzyme was not heat-inactivated.
High-speed gel permeation chromatography was performed as described previously (Irimura et al., (1983a) Anal. Biochem., V 130, pp 461-468) using a Constametric III (LDC-Milton Roy, Riviera Beach, Fla.) with a single 0.7×75 cm stainless steel column packed with Fractogel TSK HW-55(S). Elution was accomplished with 0.2M sodium chloride at flow rates of 1.0 ml/min or 0.75 ml/min. Absorption at 210 nm was monitored for the analogs of chemically modified heparin. For the qualitative examination of radiolabeled HS-degradation products, each fraction corresponding to 30-sec elution was collected into plastic scintillation vials, and radioactivity in each vial was determined after the fraction was mixed with 3.0 ml of Hydrofluor (National Diagnostics, Somerville, N.J.).
Cell extracts were prepared in 5 mM Tris-HCl buffer, pH 7.4, containing 0.25M sucrose, 50 μM calcium chloride, 10 μM phenylmethylsulfonylfluoride, and 0.2% Nonidet P-40 (Irimura et al., (1983). The melanoma extracts were stored frozen at -80° C. and used as crude heparanase.
High-Performance Liquid Chromatography [HPLC] Assay for Heparanase. Fifty microliters of melanoma extract (equivalent to 10^6 cells) were mixed with chemically modified heparin (5 mg/ml in water), 50 μl of 4×heparanase assay buffer (0.4 sodium phosphate buffer, pH 5.8, containing 0.4% Triton X-100, 0.6M sodium chloride, and 0.4% sodium azide) and about 3000 cpm of ^14 C-HS.

B16 melanoma heparanase [2] = assay: Solid-phase assay for heparanase inhibitors (3H-HS-agarose beads); assay type: biochemical, mouse; settings: B16-BL6 lysate of 10^6 cells, various concentrations, 37° C.
Method: The measurements were performed by incubating B16-BL6 melanoma heparanase. The measurements were performed by incubating B16-BL6 melanoma cell lysates equivalent to 10^6 cells with a suspension of ^3 H-HS-agarose beads prepared by partial N-desulfation and ^3 H-acetylation (approximately 20% suspension), and various concentrations of heparanase inhibitors at 37° C. for 24 hr with gentle mixing.
Source of Heparanase. Highly invasive mouse B16 melanoma (B16-BL6) cells were provided by Dr. I. J. Fidler, (M.D. Anderson Hospital, Houston, Tex.) and were cultured as previously described (Irimura et al., (1983a) and Irimura et al. (1984)). Cell extracts were prepared in 5 mM Tris-HCl buffer, pH 7.4, containing 0.25M sucrose, 50 μM calcium chloride, 10 μM phenylmethylsulfonylfluoride, and 0.2% Nonidet P-40 (Irimura et al., (1983). The melanoma extracts were stored frozen at -80° C. and used as crude heparanase.
Preparation of Solid-phase Substrates for Heparanase and Inhibitor Assays.
Solid-phase Assays for Heparanase and Heparanase Inhibitors. ^3 H-HS-agarose was suspended in Dulbecco's phosphate buffered saline (DPBS) at about 20% (v/v). The incubation conditions for the solid-phase assay were identical to those of the HPLC assay, except that 75 μl of the ^3 H-HS-agarose suspension was used instead of the HS so that the incubation mixture consisted of B16 melanoma extract, chemically modified heparins, 4×heparanase assay buffer, and ^3 H-HS-agarose suspension. After incubation, the reaction mixture was placed on ice, chilled 5% trichloroacetic acid (50 ul) added, the mixture incubated for 10 min, and centrifuged. Radioactivity in the supernatant and the pellet was determined separately after mixing with Hydrofluor.

B16-BL6 melanoma cells [3] = assay: Experimental blood-borne lung colonization, melanoma cells preincubated with heparins; assay type: in vivo, C57BL/6 mice; settings: for Number of colonies (median), Exp 1 / Number of colonies (median), Exp 2 / Number of colonies, Exp 1 (individual mice): cells incubated with 500 ug/ml at 4° C. for 2 hr before i.v. injection, lung, 20 days; for Number of colonies, Exp 1 (individual mice): 9 mice/group
Method: Experimental Metastatic Lung Colonization of Melanoma Cells. Male C57BL/6 mice 4 to 6 weeks old were obtained from Charles River, Inc. (Kingston, Md.) and quarantined for 2 weeks. Animals were fed normal rodent chow and unchlorinated spring water. B16-BL6 cells were grown to subconfluence, detached from plastic dishes by incubating in 2 mM EDTA, 0.14M NaCl and 10 mM sodium phosphatebuffer, pH 7.4, for 5-10 min, and suspended in a 1:1 mixture of Dulbecco's modified minimum essential medium and Ham's F12 medium. […] Treated or untreated cells (5×10^4 /0.1 ml) were injected intravenously to each mouse. Mice were killed 20 days later and autopsied. The numbers of pulmonary tumor nodules were counted after the lung was perfused via the trachea with 4% formalin in Dulbecco's phosphate buffered saline. Extrapulmonary tumor formation was assessed in each animal and recorded.

B16-BL6 melanoma = assay: Release of 35S-labeled substances from lung capillary endothelial extracellular matrix by melanoma cells; assay type: cell-based, mouse; settings: for degradation of sulfated molecules of endothelial matrix by melanoma cells: 35S-labeled matrix, B16-BL6 cells, 37° C., 18 hours
Method: FIG. 6: Effects of chemically modified heparins on the release of ^35 S labeled substances from the extracellular matrix of mouse lung capillary endothelial cells in vitro. […] (See: Nakajima et al., Science 220:611-613, 1983, for the methods.)
Effects of chemically modified heparins on the release of ^35 S-labeled polysaccharides from the extra-cellular matrix of mouse lung endothelial cells were studied in vitro. The endothelial cells isolated from mouse lung capillary were grown in the presence of ^35 S-sulfate, and the extracellular matrix-like material was isolated on multiwell plastic tissue culture plates by hypotonic lysis of the cells. The matrices (1 cm diameter) were incubated with mouse B16-BL6 melanoma at 37° C. for 18 hours. The released radioactivity was counted.

B16-BL6 melanoma cells [4] = assay: 3H-thymidine incorporation, growth of melanoma cells in tissue culture; assay type: cell-based, mouse; settings: with or without 5% fetal bovine serum; 48 h exposure
Method: FIG. 7: Effects of chemically modified heparins on the incorporation of ^3 H-thymidine to B16-BL6 melanoma cells grown in tissue culture.
In order to assess a possibility that the effects of modified heparins on the blood-borne lung colonization of B16 melanoma cells were due to their direct toxic effects on the cells, the growth of B16 melanoma in the presence or absence of modified heparins were examined in vitro. B16-BL6 melanoma cells were seeded in multiwell tissue culture plates at a density 10,000 per each 1 cm well in the presence or absence of 5% fetal bovine serum. Six hours later, modified heparins were added, then 24 hours later, ^3 H thymidine was added to a final concentration 5 uCi/ml. After further 24 hour incubation, trichloroacetic acid-insoluble materials were collected, dissolved in 1M sodium hydroxide solution, neutralized and counted on a liquid scintillation counter.

B16-BL6 cells = assay: Adhesion of melanoma cells to endothelial cell monolayers; assay type: cell-based, mouse; settings: B16 cells pretreated 2 hrs, continuous presence of compounds, 37° C.
Method: FIG. 8: Adhesion of B16 melanoma cells to bovine aortic endothelial cell monolayers. FIG. 8(a) B16 melanoma cells were pretreated with modified heparins at room temperature for 2 hrs, and the adhesion assays were performed in the continuous presence of these compounds at 37° C. FIG. 8(b) Endothelial cells were pretreated with modified heparins at 37° C. for 2 hrs, then adhesion assays were performed. (See Nicolson and Custead, (1985) Cancer Res. 45:331-336, for the methods
One of the most critical steps in the tumor cell-microvascular endothelium interaction during metastatic lung colonization of melanoma cells is the adhesive interaction of melanoma cells with endothelial cells. The effects of modified heparins on the adhesion of B16 melanoma to the cell monolayer and to the extracellular matrix of lung capillary endothelial cells were studied in vitro. The endothelial cells were grown in tissue culture and the extracellular matrices were isolated as described in Example 8.

B16-F10 melanoma cells = assay: Invasion of organ-cultured lung tissues by melanoma cells; assay type: cell-based; settings: organ-cultured minced mouse lung
Description: FIG. 10: Effects of modified heparins on the B16-F10 melanoma cell-invasionof isolated mouse lung tissues in vitro. The experimental conditions were the same as the adhesion experiments. The invaded cells were counted on 4 μm sections under a light microscope. (See Nicolson et al., (1985) Invasion Metastasis, 5:144-158, for detailed methods.)
The effects of these glycosaminoglycan derivates on organ-specific adhesion and invasion of B16 melanoma cells were studied by using primary organ culture techniques in vitro. Minced lung tissues (0.5-1.0 cubic mm) from C57BL/6 mice were placed in glass vials and incubated in HEPES-buffered Dulbecco's modified minimum essential media containing 10% fetal bovine serum and 50 ug/ml gentamycin under continuous gyration at 66 rpm. After the medium was changed to a fresh medium without gentamycin, B16-F10 melanoma cells were added at a final concentration of 100,000/ml with or without various modified heparins. After various incubation times, the tissues were fixed in buffered formalin and processed for light microscopy. The adhesion and invasion of the tumor cells were examined on […] sections stained with hematoxylin and eosin.

B16 melanoma cells = assay: Blood-borne lung colonization, mice treated i.v. with heparins; assay type: in vivo, C57BL/6 mice; settings: for Number of lung colonies, Median: 0.1 ml of 5.0 mg/ml i.v. 4 hr before and 20 hr after inoculation of 5×10^4 cells, 20 days; for establishment of metastatic tumor colonies in the lungs, in words: i.v. treatment of mice
Method: Chemically modified heparins were tested in mice as inhibitors of blood-borne lung colonization by melanoma cells. Male C57BL/6 mice 4 to 6 weeks old were obtained from Charles River, Inc. and quarantined for 2 weeks. The mice were intravenously inoculated with 5×10^4 B16-BL melanoma cells. Treated mice were intravenously injected with 0.1 ml each of heparin or chemically modified heparin (5.0 mg/ml) 4 hr before and 20 hr after inoculation with the melanoma cells. The chemically modified heparins used were: N-acetylated N-desulfated heparin; carboxyl-reduced heparin; and N-resulfated N, O-desulfated heparin.
Mice were killed 20 days after tumor inoculation and autopsied. The numbers of pulmonary tumor colonies were counted after the lungs were perfused via the trachea with 4% formalin in Dulbecco's phosphate-buffered saline.

[5] = test system: rat mammary adenocarcinoma MTF7; assay: Experimental metastasis of rat mammary adenocarcinoma, rats treated i.v.; assay type: in vivo, Fischer (F344/CDL) rats; settings: for Lung Metastases per rat, Median No.: 0.1 ml of 10 mg/ml i.v. 8 h before and 16 h after 5×10^4 MTF7 cells, 30 days; for effectiveness against lung tumor colonies of mammary carcinoma, in words: i.v. treatment of rats
Method: Inbred 8-week-old female Fischer (F344/CDL) rats were supplied by the Charles River Breeding Laboratories (Kingston, N.Y.). Animals were quarantined for 7 days before use and feed standard rodent chow and unchlorinated spring water ad libitum. They were maintained under guidelines set forth by the University of Texas M. D. Anderson Cancer Center and the Institute of Laboratory Animal Resources, National Research Council. […] The cells grown at 37° C. in an atmosphere of 5% CO2 in humidified air in an 1:1 mixture of Dulbecco's modified minimum essential media and Ham's F12 media containing 10% fetal bovine serum and no antibiotics in 100 mm-diam. tissue culture plates.
The cells used in this study were in exponential growth phase and were from passages 14 to 20 in vitro and were free of mycoplasma and viral contamination.
Rats (9 per group) were injected i.v. (lateral tail vein) with 0.1 ml of 10 mg/ml solution of heparin, N-acetylated-N-desulfated heparin, or carboxyl-reduced heparin. Eight hours later, the same rats were injected i.v. with 5×10^4 MTF7 mammary carcinoma cells suspended in 0.2 ml serum-free media. Sixteen hours after injections of carcinoma cells, rats were treated with unmodified or chemically modified heparin at the same dose as the previous treatment 8 hours prior to the injection of carcinoma cells.
Rats were killed 30 days after the initial injection of carcinoma cells and examined for the number of lung tumor colonies, that should represent the degree of metastatic spread of mammary carcinoma cells.

melanoma heparanase = settings: cited from earlier work
blood coagulation = assay: Anticoagulation activity by USP standard assay; settings: % of the anticoagulation activity of unmodified heparin
[6] = test system: vascular smooth muscle cells; settings: cited from earlier work

inhibition of degradation of HS by heparanase (HPLC assay) (B16 melanoma heparanase [1]): no degradation was observed
heparanase inhibitory activity (solid-phase assay, release of 3H-HS fragments) (B16 melanoma heparanase [2]): consistent with those of the HPLC assay
incorporation of 3H-thymidine to B16 cells (B16-BL6 melanoma cells [4]): no significant effects
Substance: Heparin [reference compound]
number of visible melanoma colonies in lung, in words (B16-BL6 melanoma cells [3]; 20 days after injection of preincubated cells): greater
Number of colonies (median), Exp 1 (B16-BL6 melanoma cells [3]): 16
Number of colonies (median), Exp 2 (B16-BL6 melanoma cells [3]): 0
Number of colonies, Exp 1 (individual mice) (B16-BL6 melanoma cells [3]): 174
degradation of sulfated molecules of endothelial matrix by melanoma cells (B16-BL6 melanoma): inhibited the degradation
spontaneous (non-enzymatic) release of 35S labeled macromolecules (B16-BL6 melanoma; in the absence of B16 melanoma cells): apparently induced spontaneous release; also recorded: induced non-enzymatic release
time course of adhesion to endothelial cell monolayer, melanoma cells pretreated (B16-BL6 cells): None of these compounds, including intact heparin, significantly altered
invasion of B16 melanoma cells to lung tissues (B16-F10 melanoma cells): inhibited invasion
Number of lung colonies, Median (B16 melanoma cells): 30
establishment of metastatic tumor colonies in the lungs, in words (B16 melanoma cells): inhibited formation of lung metastases
Lung Metastases per rat, Median No. [5]: 9
effectiveness against lung tumor colonies of mammary carcinoma, in words [5]: most effective
inhibition of HS degradation by B16 cell extracts (melanoma heparanase): inhibited HS degradation

inhibition of degradation of HS by heparanase (HPLC assay) (B16 melanoma heparanase [1]): failed to inhibit degradation
heparanase inhibitory activity (solid-phase assay, release of 3H-HS fragments) (B16 melanoma heparanase [2]): failed to how any inhibitory activity
Substance: N- and O-desulfated heparin

inhibition of degradation of HS by heparanase (HPLC assay) (B16 melanoma heparanase [1]): partially restored
heparanase inhibitory activity (solid-phase assay, release of 3H-HS fragments) (B16 melanoma heparanase [2]): partial restoration of activity
Substance: N-resulfated N- and O-desulfated heparin
anticoagulation activity relative to unmodified heparin (blood coagulation): less than 1%
Number of colonies (median), Exp 2 (B16-BL6 melanoma cells [3]): 8
degradation of sulfated molecules of endothelial matrix by melanoma cells (B16-BL6 melanoma): effectively blocked the degradation
Number of lung colonies, Median (B16 melanoma cells): 36

heparanase inhibitory activity (solid-phase assay, release of 3H-HS fragments) (B16 melanoma heparanase [2]): weaker inhibitory activity than heparin
incorporation of 3H-thymidine to B16 cells (B16-BL6 melanoma cells [4]): no significant effects
Substance: carboxy-reduced heparin
anticoagulation activity relative to unmodified heparin (blood coagulation): less than 1%
Number of colonies (median), Exp 1 (B16-BL6 melanoma cells [3]): 29
Number of colonies (median), Exp 2 (B16-BL6 melanoma cells [3]): 51
Number of colonies, Exp 1 (individual mice) (B16-BL6 melanoma cells [3]): 53
degradation of sulfated molecules of endothelial matrix by melanoma cells (B16-BL6 melanoma): effectively blocked the degradation
Number of lung colonies, Median (B16 melanoma cells): 6
establishment of metastatic tumor colonies in the lungs, in words (B16 melanoma cells): most effective
Lung Metastases per rat, Median No. [5]: 25
effectiveness against lung tumor colonies of mammary carcinoma, in words [5]: also effective

inhibition of degradation of HS by heparanase (HPLC assay) (B16 melanoma heparanase [1]): failed to inhibit degradation
heparanase inhibitory activity (solid-phase assay, release of 3H-HS fragments) (B16 melanoma heparanase [2]): failed to how any inhibitory activity
Substance: completely N-desulfated heparin
anti-proliferative (growth inhibitory) activity [6]: lost their anti-proliferative activity

The remaining lines, values behind:

Substance: N-acetylated N- and O-desulfated heparin
heparanase inhibitory activity (solid-phase assay, release of 3H-HS fragments) (B16 melanoma heparanase [2]): did not, however, restore the inhibitory activity

Substance: N-acetylated N-desulfated heparin
heparanase inhibitory activity (solid-phase assay, release of 3H-HS fragments) (B16 melanoma heparanase [2]): partially restored
anticoagulation activity relative to unmodified heparin (blood coagulation): less than 1%
Number of colonies (median), Exp 1 (B16-BL6 melanoma cells [3]): 43
Number of colonies (median), Exp 2 (B16-BL6 melanoma cells [3]): 5
Number of colonies, Exp 1 (individual mice) (B16-BL6 melanoma cells [3]): 199
incorporation of 3H-thymidine to B16 cells (B16-BL6 melanoma cells [4]): no significant effects
Number of lung colonies, Median (B16 melanoma cells): 60
Lung Metastases per rat, Median No. [5]: 29
effectiveness against lung tumor colonies of mammary carcinoma, in words [5]: also effective
anti-proliferative (growth inhibitory) activity [6]: retained full growth inhibitory properties

Substance: N-desulfated N-resulfated heparin [reference compound]
anti-proliferative (growth inhibitory) activity [6]: retained full growth inhibitory properties
